Tests used:
[1] = tested on: PDGF-R; assay: PDGF-R Assay (cellular ELISA, U1242 cells); assay type: cell-based; parameters: concentration or dose not given beside the values
In short: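 U1242 cells seeded in 0.5% serum, serum-starved, then exposed to compound for 2 hr at 37°C before 5–10 min ligand stimulation and lysis in HNTG. Lysate captured on receptor-antibody-coated plates; phosphotyrosine detected with polyclonal anti-pTyr, goat anti-rabbit IgG and ABTS/H2O2, A410 (ref 630 nm), versus untreated cells.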

[2] = target: T1, EGFR (Homo sapiens, UniProt P00533); assay: Biochemical EGFR Assay; parameters: concentration or dose not given beside the values
T1 construct: endogenous in cells; host or cells: A431 cells (lysate, captured with SUMO1 anti-EGFR antibody)
In short: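 EGFR from A431 lysate was captured on anti-EGFR-coated wells and preincubated 30 min with compound (diluted 1:10 in TBS) at room temperature. After ATP/MnCl2 phosphorylation for 5 min, the reaction was stopped with EDTA. Phosphotyrosine was detected by ELISA (anti-phosphotyrosine, peroxidase conjugate, ABTS) at 410 nm.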

T1 sequence (P00533 25-1210): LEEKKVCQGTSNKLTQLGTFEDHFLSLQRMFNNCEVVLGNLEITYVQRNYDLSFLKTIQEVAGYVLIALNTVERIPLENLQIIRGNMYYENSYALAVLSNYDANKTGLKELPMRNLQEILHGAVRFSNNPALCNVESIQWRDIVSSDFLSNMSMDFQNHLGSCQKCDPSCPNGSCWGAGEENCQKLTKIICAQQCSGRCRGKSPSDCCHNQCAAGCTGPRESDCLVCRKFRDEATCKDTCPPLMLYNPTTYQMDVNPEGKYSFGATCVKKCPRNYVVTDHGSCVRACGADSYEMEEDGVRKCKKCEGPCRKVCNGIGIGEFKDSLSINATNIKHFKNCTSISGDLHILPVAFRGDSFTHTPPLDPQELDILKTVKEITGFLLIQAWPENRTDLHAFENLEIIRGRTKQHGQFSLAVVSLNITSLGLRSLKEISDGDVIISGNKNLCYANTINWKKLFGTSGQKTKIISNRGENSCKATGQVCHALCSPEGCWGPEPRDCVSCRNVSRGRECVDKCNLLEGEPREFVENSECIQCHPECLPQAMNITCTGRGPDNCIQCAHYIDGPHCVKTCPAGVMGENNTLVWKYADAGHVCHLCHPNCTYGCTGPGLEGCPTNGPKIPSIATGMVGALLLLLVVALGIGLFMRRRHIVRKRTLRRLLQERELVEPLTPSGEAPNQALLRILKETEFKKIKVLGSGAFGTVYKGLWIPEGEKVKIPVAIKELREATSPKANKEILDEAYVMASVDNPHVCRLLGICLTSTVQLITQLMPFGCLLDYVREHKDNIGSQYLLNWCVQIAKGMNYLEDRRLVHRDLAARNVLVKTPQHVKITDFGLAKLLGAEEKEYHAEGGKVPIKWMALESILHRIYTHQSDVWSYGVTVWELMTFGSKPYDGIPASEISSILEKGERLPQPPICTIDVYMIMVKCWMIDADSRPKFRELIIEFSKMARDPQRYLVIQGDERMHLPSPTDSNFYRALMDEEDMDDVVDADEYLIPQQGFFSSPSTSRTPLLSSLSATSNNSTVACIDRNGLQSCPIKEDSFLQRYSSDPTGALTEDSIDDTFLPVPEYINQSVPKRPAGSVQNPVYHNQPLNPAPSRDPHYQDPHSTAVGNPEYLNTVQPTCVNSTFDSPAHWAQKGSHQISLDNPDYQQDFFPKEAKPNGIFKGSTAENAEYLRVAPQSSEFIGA

O=C1Nc2ccc(S(=O)(=O)N3CCOCC3)cc2C1=Cc1cc(F)cc(F)c1 [10735/F04]
PDGF Kinase % Inhibition (P.119) [1]: 40.5%
Biochem EGFR % Inhibition (P.167) [2]: 10.6%

Cc1ccccc1C=C1C(=O)Nc2ccc(S(=O)(=O)Nc3ccc(C(F)(F)F)cc3)cc21 [10735/E02]
PDGF Kinase % Inhibition (P.119) [1]: 14.7%
Biochem EGFR % Inhibition (P.167) [2]: 16.7%

Cc1c(Br)cc(Br)c2c1C(=Cc1cccc(F)c1O)C(=O)N2 [10734/H08]
PDGF Kinase % Inhibition (P.119) [1]: 2.9%
Biochem EGFR % Inhibition (P.167) [2]: 2.9%

O=C1Nc2ccc(CCCl)cc2C1=Cc1cccc(C(F)(F)F)c1 [10735/G05]
PDGF Kinase % Inhibition (P.119) [1]: 13.6%
Biochem EGFR % Inhibition (P.167) [2]: 16.7%

Cc1c(Br)cc(Br)c2c1C(=Cc1cc(Br)cc(Br)c1O)C(=O)N2 [10734/H07]
PDGF Kinase % Inhibition (P.119) [1]: −6.4%
Biochem EGFR % Inhibition (P.167) [2]: 6.6%

O=C1Nc2c(Br)cc(Br)cc2C1=Cc1ccc(-c2ccccc2)cc1 [10735/A11]
PDGF Kinase % Inhibition (P.119) [1]: 5.7%
Biochem EGFR % Inhibition (P.167) [2]: 3.3%

O=C1Nc2ccc(S(=O)(=O)Nc3ccc(C(F)(F)F)cc3)cc2C1=Cc1ccc(Cl)cc1Cl [10735/E10]
PDGF Kinase % Inhibition (P.119) [1]: 27.1%
Biochem EGFR % Inhibition (P.167) [2]: 19.1%

Cc1c(Br)ccc2c1C(=Cc1cc(C(F)(F)F)cc(C(F)(F)F)c1)C(=O)N2 [10735/C06]
PDGF Kinase % Inhibition (P.119) [1]: 25.0%
Biochem EGFR % Inhibition (P.167) [2]: 8.5%

O=C1Nc2ccc(CCCl)cc2C1=Cc1cc(C(F)(F)F)cc(C(F)(F)F)c1 [10735/G06]
PDGF Kinase % Inhibition (P.119) [1]: 12.9%
Biochem EGFR % Inhibition (P.167) [2]: 2.1%

O=C1Nc2ccc(S(=O)(=O)N3CCOCC3)cc2C1=Cc1ccc(-c2ccccc2)cc1 [10735/F11]
PDGF Kinase % Inhibition (P.119) [1]: 4.0%
Biochem EGFR % Inhibition (P.167) [2]: 14.8%

N#Cc1ccccc1C=C1C(=O)Nc2c(Br)cc(Br)cc21 [10735/A07]
PDGF Kinase % Inhibition (P.119) [1]: 0.5%
Biochem EGFR % Inhibition (P.167) [2]: 18.7%

CNS(=O)(=O)c1ccc2c(c1)C(=Cc1c(F)cccc1F)C(=O)N2 [10735/D08]
PDGF Kinase % Inhibition (P.119) [1]: −5.7%
Biochem EGFR % Inhibition (P.167) [2]: −1.5%

Cc1c(Br)ccc2c1C(=Cc1cccc3ccccc13)C(=O)N2 [10735/C09]
PDGF Kinase % Inhibition (P.119) [1]: −2.6%
Biochem EGFR % Inhibition (P.167) [2]: −22.1%

Cc1ccccc1C=C1C(=O)Nc2ccc(I)cc21 [10735/B02]
PDGF Kinase % Inhibition (P.119) [1]: 22.6%
Biochem EGFR % Inhibition (P.167) [2]: 39.1%

Cc1c(Br)cc(Br)c2c1C(=Cc1ccc(O)c(O)c1)C(=O)N2 [10719/H03]
Biochem EGFR % Inhibition (P.167) [2]: 25.1%

CCOc1ccc(C=C2C(=O)Nc3c(Br)cc(Br)c(C)c32)cc1OC [10719/H02]
Biochem EGFR % Inhibition (P.167) [2]: 43.9%

O=C1Nc2c(Br)cc(Br)cc2C1=Cc1cccc2ccccc12 [10735/A09]
PDGF Kinase % Inhibition (P.119) [1]: 1.9%
Biochem EGFR % Inhibition (P.167) [2]: 13.0%

O=C1Nc2c(Br)cc(Br)cc2C1=Cc1ccc(F)c(F)c1 [10735/A03]
PDGF Kinase % Inhibition (P.119) [1]: 21.9%
Biochem EGFR % Inhibition (P.167) [2]: 28.8%

CNS(=O)(=O)c1ccc2c(c1)C(=Cc1ccc(F)c(F)c1)C(=O)N2 [10735/D03]
PDGF Kinase % Inhibition (P.119) [1]: 12.9%
Biochem EGFR % Inhibition (P.167) [2]: 7.5%

COc1cc(OC)c(C=C2C(=O)Nc3c(Br)cc(Br)c(C)c32)c(OC)c1 [10719/H06]
Biochem EGFR % Inhibition (P.167) [2]: −28.0%

O=C1Nc2ccc(S(=O)(=O)N3CCOCC3)cc2C1=Cc1ccc(F)c(F)c1 [10735/F03]
PDGF Kinase % Inhibition (P.119) [1]: 7.8%
Biochem EGFR % Inhibition (P.167) [2]: 19.1%

O=C1Nc2ccc(S(=O)(=O)N3CCOCC3)cc2C1=Cc1cccc(C(F)(F)F)c1 [10735/F05]
PDGF Kinase % Inhibition (P.119) [1]: 37.1%
Biochem EGFR % Inhibition (P.167) [2]: 5.5%

O=C1Nc2ccc(S(=O)(=O)Nc3ccc(C(F)(F)F)cc3)cc2C1=Cc1cccc(C(F)(F)F)c1 [10735/E05]
PDGF Kinase % Inhibition (P.119) [1]: 47.8%
Biochem EGFR % Inhibition (P.167) [2]: 30.6%

CCN(CC)c1ccc(C=C2C(=O)Nc3c(Br)cc(Br)c(C)c32)c(O)c1 [10734/H05]
PDGF Kinase % Inhibition (P.119) [1]: −14.4%
Biochem EGFR % Inhibition (P.167) [2]: 4.7%

O=C1Nc2c(Br)cc(Br)cc2C1=Cc1cc(C(F)(F)F)cc(C(F)(F)F)c1 [10735/A06]
PDGF Kinase % Inhibition (P.119) [1]: 4.7%
Biochem EGFR % Inhibition (P.167) [2]: 24.9%

Cc1ccccc1C=C1C(=O)Nc2c(Br)cc(Br)cc21 [10735/A02]
PDGF Kinase % Inhibition (P.119) [1]: 14.3%
Biochem EGFR % Inhibition (P.167) [2]: 14.3%

O=C1Nc2ccc(S(=O)(=O)Nc3ccc(C(F)(F)F)cc3)cc2C1=Cc1cc(C(F)(F)F)cc(C(F)(F)F)c1 [10735/E06]
PDGF Kinase % Inhibition (P.119) [1]: 32.3%
Biochem EGFR % Inhibition (P.167) [2]: 8.7%

O=C1Nc2ccc(I)cc2C1=Cc1ccc(F)c(F)c1 [10735/B03]
PDGF Kinase % Inhibition (P.119) [1]: 16.4%
Biochem EGFR % Inhibition (P.167) [2]: 42.9%

O=C1Nc2c(Br)cc(Br)cc2C1=Cc1cc(F)cc(F)c1 [10735/A04]
PDGF Kinase % Inhibition (P.119) [1]: 18.8%
Biochem EGFR % Inhibition (P.167) [2]: 5.0%

CNS(=O)(=O)c1ccc2c(c1)C(=Cc1cc(C(F)(F)F)cc(C(F)(F)F)c1)C(=O)N2 [10735/D06]
PDGF Kinase % Inhibition (P.119) [1]: 14.7%
Biochem EGFR % Inhibition (P.167) [2]: 8.0%

Cc1c(Br)ccc2c1C(=Cc1cccc(C(F)(F)F)c1)C(=O)N2 [10735/C05]
PDGF Kinase % Inhibition (P.119) [1]: 20.5%
Biochem EGFR % Inhibition (P.167) [2]: 14.5%

CNS(=O)(=O)c1ccc2c(c1)C(=Cc1ccccc1C#N)C(=O)N2 [10735/D07]
PDGF Kinase % Inhibition (P.119) [1]: 3.6%
Biochem EGFR % Inhibition (P.167) [2]: −17.6%

Cc1c(Br)ccc2c1C(=Cc1ccc(Cl)cc1Cl)C(=O)N2 [10735/C10]
PDGF Kinase % Inhibition (P.119) [1]: 4.0%
Biochem EGFR % Inhibition (P.167) [2]: −14.4%

CCc1c(C)[nH]c(C=C2C(=O)Nc3c(Br)cc(Br)c(C)c32)c1C [10719/H05]
Biochem EGFR % Inhibition (P.167) [2]: 7.9%

O=C1Nc2ccc(I)cc2C1=Cc1cccc2ccccc12 [10735/B09]
PDGF Kinase % Inhibition (P.119) [1]: −0.5%
Biochem EGFR % Inhibition (P.167) [2]: 39.8%

CNS(=O)(=O)c1ccc2c(c1)C(=Cc1cccc3ccccc13)C(=O)N2 [10735/D09]
PDGF Kinase % Inhibition (P.119) [1]: 6.7%
Biochem EGFR % Inhibition (P.167) [2]: −0.3%

Cc1c(Br)ccc2c1C(=Cc1cc(F)cc(F)c1)C(=O)N2 [10735/C04]
PDGF Kinase % Inhibition (P.119) [1]: 12.9%
Biochem EGFR % Inhibition (P.167) [2]: 5.8%

O=C1Nc2ccc(I)cc2C1=Cc1cc(F)cc(F)c1 [10735/B04]
PDGF Kinase % Inhibition (P.119) [1]: 2.9%
Biochem EGFR % Inhibition (P.167) [2]: 49.2%

O=C1Nc2ccc(S(=O)(=O)Nc3ccc(C(F)(F)F)cc3)cc2C1=Cc1c(F)cccc1F [10735/E08]
PDGF Kinase % Inhibition (P.119) [1]: 25.4%
Biochem EGFR % Inhibition (P.167) [2]: 10.2%

O=C1Nc2ccc(S(=O)(=O)N3CCOCC3)cc2C1=Cc1c(F)cccc1F [10735/F08]
PDGF Kinase % Inhibition (P.119) [1]: 13.3%
Biochem EGFR % Inhibition (P.167) [2]: 9.4%

CNS(=O)(=O)c1ccc2c(c1)C(=Cc1cccc(C(F)(F)F)c1)C(=O)N2 [10735/D05]
PDGF Kinase % Inhibition (P.119) [1]: 20.5%
Biochem EGFR % Inhibition (P.167) [2]: 23.0%

O=C1Nc2c(Br)cc(Br)cc2C1=Cc1cccc(C(F)(F)F)c1 [10735/A05]
PDGF Kinase % Inhibition (P.119) [1]: 0.9%
Biochem EGFR % Inhibition (P.167) [2]: 41.5%

O=C1Nc2ccc(I)cc2C1=Cc1cc(C(F)(F)F)cc(C(F)(F)F)c1 [10735/B06]
PDGF Kinase % Inhibition (P.119) [1]: 14.0%
Biochem EGFR % Inhibition (P.167) [2]: 49.4%

O=C1Nc2ccc(I)cc2C1=Cc1ccc(Cl)cc1Cl [10735/B10]
PDGF Kinase % Inhibition (P.119) [1]: 3.6%
Biochem EGFR % Inhibition (P.167) [2]: 30.1%

N#Cc1ccccc1C=C1C(=O)Nc2ccc(S(=O)(=O)Nc3ccc(C(F)(F)F)cc3)cc21 [10735/E07]
PDGF Kinase % Inhibition (P.119) [1]: 57.1%
Biochem EGFR % Inhibition (P.167) [2]: 27.4%

O=C1Nc2ccc(I)cc2C1=Cc1c(F)cccc1F [10735/B08]
PDGF Kinase % Inhibition (P.119) [1]: 9.8%
Biochem EGFR % Inhibition (P.167) [2]: 24.5%

CNS(=O)(=O)c1ccc2c(c1)C(=Cc1cc(F)cc(F)c1)C(=O)N2 [10735/D04]
PDGF Kinase % Inhibition (P.119) [1]: 8.5%
Biochem EGFR % Inhibition (P.167) [2]: 3.8%

COc1ccc(C=C2C(=O)Nc3c(Br)cc(Br)c(C)c32)c(OC)c1 [10719/H04]
Biochem EGFR % Inhibition (P.167) [2]: −0.5%

Cc1c(O)ccc(C=C2C(=O)Nc3c(Br)cc(Br)c(C)c32)c1O [10718/H09]
Biochem EGFR % Inhibition (P.167) [2]: 34.2%

Cc1c(Br)cc(Br)c2c1C(=Cc1ccc([N+](=O)[O-])o1)C(=O)N2 [10718/H11]
Biochem EGFR % Inhibition (P.167) [2]: 4.4%

Cc1c(Br)cc(Br)c2c1C(=Cc1ccco1)C(=O)N2 [10718/H10]
Biochem EGFR % Inhibition (P.167) [2]: −5.7%
